According to patent EP4737452A1, “NOVEL PYRIMIDINE DERIVATIVES” (Aigen Sciences Inc., priority 2023, dated 2025):
Like-named read-outs stand apart in the source and are kept apart here.

Key:
USP1 enzyme = USP1 enzyme (Homo sapiens, UniProt O94782); experiment: Biochemical analysis of USP1 enzyme activity (ubiquitin-rhodamine 110 deubiquitination, fluorescence); conditions: ubiquitin-rhodamine 110 substrate, 10 minutes pre-incubation, 30 minutes reaction at room temperature; read-out: Enzyme activity IC50 grade
Protocol: In this experimental example, the inhibitory effect of the compounds according to the present invention and the positive control compound on USP1 deubiquitinating activity was tested using a biochemical enzymatic assay. Ubiquitin-rhodamine 110 was used as a substrate for measuring deubiquitinating activity. This substrate compound is a substance in which rhodamine 110 is linked to the glycine residue at the C-terminus of ubiquitin by an amide bond. When this amide bond is cleaved by the deubiquitinating activity, a fluorescent signal is counted.
Subsequently, analytical buffer solution (50 mM hydroxyethylpiperazineethanesulfonic acid (HEPES) containing USP1 enzyme, 100 mM NaCl, 2 mM tris(2-carboxyethyl)phosphine (TCEP), and 100 µg/mL bovine serum albumin (BSA)) were added to each well of the plate and incubated at room temperature for 10 minutes. Subsequently, analytical y buffer solution containing ubiquitin-rhodamine 110 was added to each well and reacted at room temperature for 30 minutes.

MDA-MB-436 = experiment: Cell survival analysis (CellTiter-Glo, 10 days culture); format: cell-based; conditions: Homo sapiens, read-out: Cell growth IC50 grade
Protocol: In this experimental example, the cell growth inhibitory effect of compounds according to the present invention and positive control compounds in tumor cell lines was examined.
MDA-MB-436 (ATCC, #HTB-130) cell line was cultured in cell culture medium (Leibovitz's L-15 (GIBCO catalog no. 11415064) + 10 µg/mL insulin (Yeasen catalog no. 40112ES25) + 16 µg/mL glutathione (GIBCO catalog no. 25030-081) + 10% fetal bovine serum (FBS) (Excell Bio catalog no. FSP500)). 3,000 MDA-MB-436 cells were plated per well in a 96-well plate and cultured for 1 day at 37°C in 5% CO2. […] The cells were then cultured in a cell incubator for 10 days, and the cell culture medium containing the compound was replaced on the 5th day of culture. Cell survival rate was analyzed for luminescence using the Promega CellTiter-Glo Luminescent Cell Viability Assay Kit (Promega catalog number G7573), and the luminescence was measured using a PerkinElmer EnVision instrument. The percentage of cell growth inhibition rate was calculated from the measured relative luminescence unit (RLU) as follows. Inhibition rate = 1−((RLU compound−RLU blank)/(RLU control−RLU blank)) × 100 [formula]

[1] = 240 h, MDA-MB-436 cell line, cultured for 10 days, CellTiter-Glo

Chain of USP1 enzyme (O94782 whole entry): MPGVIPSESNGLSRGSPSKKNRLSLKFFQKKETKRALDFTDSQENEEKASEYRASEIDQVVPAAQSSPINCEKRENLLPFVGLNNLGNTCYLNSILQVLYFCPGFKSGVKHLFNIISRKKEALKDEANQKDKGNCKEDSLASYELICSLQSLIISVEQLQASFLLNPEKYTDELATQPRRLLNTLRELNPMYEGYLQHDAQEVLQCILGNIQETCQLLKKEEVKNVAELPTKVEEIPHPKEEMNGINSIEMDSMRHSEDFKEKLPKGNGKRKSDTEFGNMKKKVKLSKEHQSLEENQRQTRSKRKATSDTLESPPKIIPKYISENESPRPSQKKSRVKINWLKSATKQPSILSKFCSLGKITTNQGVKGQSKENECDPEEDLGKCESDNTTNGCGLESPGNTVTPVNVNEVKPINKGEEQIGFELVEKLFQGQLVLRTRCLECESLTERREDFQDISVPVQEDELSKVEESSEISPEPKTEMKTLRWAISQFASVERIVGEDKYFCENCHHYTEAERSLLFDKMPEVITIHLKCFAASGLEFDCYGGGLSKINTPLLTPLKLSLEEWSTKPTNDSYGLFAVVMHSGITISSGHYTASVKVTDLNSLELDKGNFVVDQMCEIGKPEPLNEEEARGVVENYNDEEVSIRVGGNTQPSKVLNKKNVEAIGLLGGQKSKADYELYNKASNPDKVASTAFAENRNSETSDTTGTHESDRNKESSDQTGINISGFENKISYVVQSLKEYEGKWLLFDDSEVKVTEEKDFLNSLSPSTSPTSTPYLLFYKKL
Chain of USP1 enzyme (Q8TAF3 whole entry partner): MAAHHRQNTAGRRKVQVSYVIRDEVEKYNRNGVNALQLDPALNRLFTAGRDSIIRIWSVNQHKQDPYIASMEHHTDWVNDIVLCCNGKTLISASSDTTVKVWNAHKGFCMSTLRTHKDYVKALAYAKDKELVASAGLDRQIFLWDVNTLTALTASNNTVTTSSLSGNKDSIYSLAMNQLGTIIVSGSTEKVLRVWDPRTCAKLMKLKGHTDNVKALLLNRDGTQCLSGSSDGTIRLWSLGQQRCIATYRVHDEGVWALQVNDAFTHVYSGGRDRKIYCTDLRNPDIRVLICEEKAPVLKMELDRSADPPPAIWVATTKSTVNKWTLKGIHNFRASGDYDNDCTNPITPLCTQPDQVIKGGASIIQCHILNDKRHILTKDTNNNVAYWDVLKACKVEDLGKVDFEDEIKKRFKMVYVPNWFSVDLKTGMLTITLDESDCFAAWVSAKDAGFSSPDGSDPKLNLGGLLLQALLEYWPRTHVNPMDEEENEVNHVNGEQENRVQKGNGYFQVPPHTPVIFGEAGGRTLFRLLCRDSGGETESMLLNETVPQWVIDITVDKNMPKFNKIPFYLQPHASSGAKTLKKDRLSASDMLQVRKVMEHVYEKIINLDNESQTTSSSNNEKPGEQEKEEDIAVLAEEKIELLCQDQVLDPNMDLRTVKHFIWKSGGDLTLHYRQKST

| Compound | IC50 (USP1 enzyme) [µM] | IC50 (MDA-MB-436; [1]) [µM] | IC50 (MDA-MB-436; MDA-MB-436, 240 h) [µM] |
| --- | --- | --- | --- |
| COc1ncnc(C2CC2)c1-c1ncc(P(C)(C)=O)c(NCC23CCC(c4nc(C(F)(F)F)cn4C)(CC2)CC3)n1 [Example 10, (4'-cyclopropyl-6'-methoxy-4-(((4-(1-methyl-4-(trifluoromethyl)-1H-imidazol-2-yl)bicyclo[2.2.2]octan-1-yl)methyl)amino)-[2,5'-bipyrimidine]-5-yl)dimethylphosphine oxide] | 0.05 to 0.1 | 0.1 to 0.5 |  |
| COc1ncnc(C2CC2)c1-c1ncc(P(C)(C)=O)c(NCc2ccc(-c3nc(C(F)(F)F)cn3C)cc2)n1 [Example 2, (4'-cyclopropyl-6'-methoxy-4-((4-(1-methyl-4-(trifluoromethyl)-1H-imidazol-2-yl)benzyl)amino)-[2,5'-bipyrimidine]-5-yl)dimethylphosphine oxide] | 0.05 to 0.1 | 0.1 to 0.5 |  |
| COc1ncnc(C2CC2)c1-c1ncc(P(C)(C)=O)c(NCc2ccc(-c3nc(C(F)(F)F)cn3C(C)C)cc2)n1 [Example 12, (4'-cyclopropyl-4-((4-(1-isopropyl-4-(trifluoromethyl)-1H-imidazol-2-yl)benzyl)amino)-6'-methoxy-[2,5'-bipyrimidine]-5-yl)dimethylphosphine oxide] | 0.05 to 0.1 | 0.1 to 0.5 |  |
| COc1ncnc(C2CC2)c1-c1ncc(P(C)(C)=O)c(NCc2ccc(-n3nc(C(F)(F)F)cc3C)cc2)n1 [Example 9, (4'-cyclopropyl-6'-methoxy-4-((4-(5-methyl-3-(trifluoromethyl)-1H-pyrazole-1-yl)benzyl)amino)-[2,5'-bipyrimidine]-5-yl)dimethylphosphine oxide] | < 0.05 | < 0.1 |  |
| COc1ncnc(C2CC2)c1-c1ncc(P(C)(C)=O)c(NCc2ccc(-n3nc(C(F)(F)F)cc3C(C)C)cc2)n1 [Example 15, (4'-cyclopropyl-4-((4-(5-isopropyl-3-(trifluoromethyl)-1H-pyrazole-1-yl)benzyl)amino)-6'-methoxy-[2,5'-bipyrimidine]-5-yl)dimethylphosphine oxide] | < 0.05 | < 0.1 |  |
| Cc1cnn(C(C)C)c1-c1ncc(P(C)(C)=O)c(NCc2ccc(-c3nc(C(F)(F)F)cn3C)cc2)n1 [Example 3, (2-(1-isopropyl-4-methyl-1H-pyrazole-5-yl)-4-((4-(1-methyl-4-(trifluoromethyl)-1H-imidazol-2-yl)benzyl)amino)pyrimidin-5-yl)dimethylphosphine oxide] | > 0.1 | > 0.5 |  |
| COc1ncnc(C2CC2)c1-c1ncc(P(C)(C)=O)c(NCc2ccc(-c3nc(C(F)(F)F)cn3C)c(F)c2)n1 [Example 7, (4'-cyclopropyl-4-((3-fluoro-4-(1-methyl-4-(trifluoromethyl)-1H-imidazol-2-yl)benzyl)amino)-6'-methoxy-[2,5'-bipyrimidine]-5-yl)dimethylphosphine oxide] | 0.05 to 0.1 | < 0.1 |  |
| COc1ncnc(C2CC2)c1-c1ncc(P(C)(C)=O)c(NCc2ccc(-n3nc(C(F)(F)F)cc3C3CC3)c(F)c2)n1 [Example 18, (4'-cyclopropyl-4-((4-(5-cyclopropyl-3-(trifluoromethyl)-1H-pyrazole-1-yl)-3-fluorobenzyl)amino)-6'-methoxy[2,5'-bipyrimidine]-5-yl)dimethylphosphine oxide] | < 0.05 | < 0.1 |  |
| Cn1cc(C(F)(F)F)nc1-c1ccc(CNc2nc(-c3cccnc3OC(F)F)ncc2P(C)(C)=O)cc1 [Example 6, (2-(2-(difluoromethoxy)pyridin-3-yl)-4-((4-(1-methyl-4-(trifluoromethyl)-1H-imidazol-2-yl)benzyl)amino)pyrimidin-5-yl)dimethylphosphine oxide] | > 0.1 | 0.1 to 0.5 |  |
| Cc1cnc(-c2ccccc2C(C)C)nc1NCc1ccc(-n2ccnn2)cc1 [ML323, N-(4-(1H-1,2,3-triazol-1-yl)benzyl)-5-methyl-2-(2-isopropylphenyl)pyrimidin-4-amine, reference compound] |  | > 0.5 |  |
| COc1ncnc(C2CC2)c1-c1ncc(P(C)(C)=O)c(NCC23C4C5C2C2C3C4C52c2nc(C(F)(F)F)cn2C)n1 [Example 11, (4'-cyclopropyl-6'-methoxy-4-((((1s,2R,3s,4r,5S,6r,7R,8S)-4-(1-methyl-4-(trifluoromethyl)-1H-imidazol-2-yl)cuban-1-yl)methyl)amino)-[2,5'-bipyrimidine]-5-yl)dimethylphosphine oxide] | < 0.05 |  | < 0.1 |
| COc1ncnc(C2CC2)c1-c1ncc(P(C)(C)=O)c(NCc2ccc(-n3nc(C(F)(F)F)cc3C(C)C)c(F)c2)n1 [Example 16, (4'-cyclopropyl-4-((3-fluoro-4-(5-isopropyl-3-(trifluoromethyl)-1H-pyrazol-1-yl)benzyl)amino)-6'-methoxy-[2,5'-bipyrimidine]-5-yl)dimethylphosphine oxide] | < 0.05 | < 0.1 |  |
| COc1ncnc(C2CC2)c1-c1ncc(P(C)(C)=O)c(NCc2ccc(-c3nc(C(F)(F)F)cn3C3CC3)cc2)n1 [Example 8, (4'-cyclopropyl-4-((4-(1-cyclopropyl-4-(trifluoromethyl)-1H-imidazol-2-yl)benzyl)amino)-6'-methoxy-[2,5'-bipyrimidine]-5-yl)dimethylphosphine oxide] | < 0.05 | < 0.1 |  |
| CC(C)c1ncccc1-c1ncc(P(C)(C)=O)c(NCc2ccc(-c3nc(C(F)(F)F)cn3C)cc2)n1 [Example 4, (2-(2-isopropylpyridine-3-yl)-4-((4-(1-methyl-4-(trifluoromethyl)-1H-imidazol-2-yl)benzyl)amino)pyrimidin-5-yl)dimethylphosphine oxide] | > 0.1 | 0.1 to 0.5 |  |
| [2H]C([2H])([2H])Oc1ncnc(C2CC2)c1-c1ncc(P(C)(C)=O)c(NCc2ccc(-c3nc(C(F)(F)F)cn3C)cc2)n1 [Example 5, (4'-cyclopropyl-6'-(methoxy-d3)-4-((4-(1-methyl-4-(trifluoromethyl)-1H-imidazol-2-yl)benzyl)amino)-[2,5'-bipyrimidine]-5-yl)dimethylphosphine oxide] | 0.05 to 0.1 | 0.1 to 0.5 |  |
| COc1ncnc(C2CC2)c1-c1ncc(P(C)(C)=O)c(NCc2ccc(-n3nc(C(F)(F)F)cc3C)c(F)c2)n1 [Example 14, (4'-cyclopropyl-4-((3-fluoro-4-(5-methyl-3-(trifluoromethyl)-1H-pyrazole-1-yl)benzyl)amino)-6'-methoxy-[2,5'-bipyrimidine]-5-yl)dimethylphosphine oxide] | < 0.05 | < 0.1 |  |
| COc1ncnc(C2CC2)c1-c1ncc(P(C)(C)=O)c(NCc2ccc(-n3nc(C(F)(F)F)cc3C3CC3)cc2)n1 [Example 17, (4'-cyclopropyl-4-((4-(5-cyclopropyl-3-(trifluoromethyl)-1H-pyrazole-1-yl)benzyl)amino)-6'-methoxy-[2,5'-bipyrimidine]-5-yl)dimethylphosphine oxide] | < 0.05 | < 0.1 |  |
| COc1ncnc(C2CC2)c1-c1ncc(P(C)(C)=O)c(NCc2ccc(-c3nc(C(F)(F)F)cn3C(C)C)c(F)c2)n1 [Example 13, (4'-cyclopropyl-4-((3-fluoro-4-(1-isopropyl-4-(trifluoromethyl)-1H-imidazol-2-yl)benzyl)amino)-6'-methoxy-[2,5'-bipyrimidine]-5-yl)dimethylphosphine oxide] | < 0.05 | < 0.1 |  |
